Measurements as given in patent publication US11643385B2, “Polymorphic forms of RAD1901-2HCl” (RADIUS PHARMACEUTICALS, INC., priority 2018, dated 2023).
Read-outs that look alike come from different tables or passages of the source. Marks after values point to notes of the source that are not given here.

Assays:
[1] = Solubility assessment and polymorph screen on amorphous RAD1901-2HCl; type: physicochemical; settings: for XRPD post 50° C./RT (form): after maturation at 50° C./RT; for Solubility observation at 10 vol.: amorphous RAD1901-2HCl, 10 vol. solvent (solvent per sample ID); for XRPD post 25° C. (form): after maturation at 25° C.
Protocol: In a scale-up preparation of amorphous RAD1901-2HCl, RAD1901-2HCl (600 mg) was dissolved in water (20 vol., 12 mL) and filtered to remove any remaining solid particles. The solution was then aliquoted into 24 HPLC vials, frozen in a dry ice/acetone bath and the solvent removed by lyophilisation. Solids produced by lyophilization were used directly in solubility assessment and polymorph screens in Example 4.
Amorphous RAD1901-2HCl prepared as described in Example 3B was used directly in solubility assessment and polymorph screens (Table 15). XRPD patterns were further obtained for amorphous RAD1901-2HCl prepared using other solvents.
In the polymorph screen of the amorphous RAD1901-2HCl prepared as described in Example 3B, an aliquot of each sample was examined for its morphology under the microscope, both after maturing at 25° C., and after maturing at 50° C./RT. […] In some instances, the sample appeared to be a mixture of various polymorphic forms, e.g. Form 2 and Form 3 (FIGS. 18B-18C), similar to the mixture of Forms 2 and 3 in Sample 2 having an equilibrium between the two solid forms, depending on the prevailing RH.

[2] = Solubility assessment of amorphous RAD1901-2HCl in water/organic solvent mixtures; type: physicochemical; settings: for XRPD (form) after stirring: after stirring at 25° C. for 72 hours
Protocol: Samples of amorphous RAD1901-2HCl were prepared in water/organic solvent mixtures containing varying ratios of water. The organic solvents chosen were anhydrous ethanol, methanol and ethyl acetate. The percentage of water in the water/organic solvent mixtures was varied between 0 and 10% (v/v) in order to place a limit on the level of water that can be present during production processes, and to retain formation of Form 1. Above this water activity limit, the hydrated Form 3 will be obtained, as shown by GVS experiments (see FIGS. 6G and 20A). It should be noted that samples prepared in ethyl acetate, were either slurried in anhydrous ethyl acetate, or in water saturated ethyl acetate.
The water activity values for each water/organic solvent mixture are provided in Table 16, and were calculated using the reference given in Bell, Halling, Enzyme Microbiol. Technol. 1997, 20, 471, incorporated herein by reference.

Row | SMILES | XRPD post 50° C./RT (form) [1] | Solubility observation at 10 vol. [1] | Observation After maturation at 50° C. ([1]; maturation at 50° C./RT) | further results
1 | CCNCCc1ccc(CN(CC)c2cc(OC)ccc2[C@@H]2CCc3cc(O)ccc3C2)cc1.Cl.Cl [Form B1.] | Amorphous | X (X = suspension) |  | 
2 | CCNCCc1ccc(CN(CC)c2cc(OC)ccc2[C@@H]2CCc3cc(O)ccc3C2)cc1.Cl.Cl [Form B14.] | Poor | X (X = suspension) |  | 
3 | CCNCCc1ccc(CN(CC)c2cc(OC)ccc2[C@@H]2CCc3cc(O)ccc3C2)cc1.Cl.Cl [amorphous RAD1901-2HCl] |  |  |  | Form crystallized in anhydrous ethanol ([2]; anhydrous ethanol): Form 1; Form produced by slurrying in anhydrous ethyl acetate ([2]; anhydrous ethyl acetate): Form 1; Form crystallized in anhydrous methanol ([2]; anhydrous methanol): Form 2; Form produced by slurrying in water-saturated ethyl acetate ([2]; water-saturated ethyl acetate, water activity 0.77): Form 3; Ratio of water/ethanol up to which crystals were Form 1 ([2]; water/ethanol): up to 5%; Water activity limit above which hydrate Form 3 results instead of Form 1 ([2]; water/ethanol): 0.39; Ratio of water/methanol up to which crystals were Form 2 ([2]; water/methanol): ≤ 2%; Water activity limit above which hydrate Form 3 results instead of Form 2 ([2]; water/methanol): 0.08
4 | CCNCCc1ccc(CN(CC)c2cc(OC)ccc2[C@@H]2CCc3cc(O)ccc3C2)cc1.Cl.Cl [Form B17.] | Form 1* |  |  | Observation After maturation at 50° C. [1]: Fine
5 | CCNCCc1ccc(CN(CC)c2cc(OC)ccc2[C@@H]2CCc3cc(O)ccc3C2)cc1.Cl.Cl [Form C7.] |  |  |  | Observation After stirring at 25° C. for 72 hours [2]: Crystals; XRPD (form) after stirring [2]: Form 2
6 | CCNCCc1ccc(CN(CC)c2cc(OC)ccc2[C@@H]2CCc3cc(O)ccc3C2)cc1.Cl.Cl [Form B12.] | Form 3 | S (S = solution) | Lath | XRPD post 25° C. (form) [1]: Form 3
7 | CCNCCc1ccc(CN(CC)c2cc(OC)ccc2[C@@H]2CCc3cc(O)ccc3C2)cc1.Cl.Cl [Form B24.] | Form 3 | X (X = suspension) | Fine | XRPD post 25° C. (form) [1]: Form 3
8 | CCNCCc1ccc(CN(CC)c2cc(OC)ccc2[C@@H]2CCc3cc(O)ccc3C2)cc1.Cl.Cl [Form B20.] | Form 1 | X (X = suspension) | Crystalline | 
9 | CCNCCc1ccc(CN(CC)c2cc(OC)ccc2[C@@H]2CCc3cc(O)ccc3C2)cc1.Cl.Cl [Form C4.] |  |  |  | XRPD (form) after stirring [2]: Form 1
10 | CCNCCc1ccc(CN(CC)c2cc(OC)ccc2[C@@H]2CCc3cc(O)ccc3C2)cc1.Cl.Cl [Form C1.] |  |  |  | XRPD (form) after stirring [2]: Form 3
11 | CCNCCc1ccc(CN(CC)c2cc(OC)ccc2[C@@H]2CCc3cc(O)ccc3C2)cc1.Cl.Cl [Form B10.] | Form 1 | X (X = suspension) | Fine | 
12 | CCNCCc1ccc(CN(CC)c2cc(OC)ccc2[C@@H]2CCc3cc(O)ccc3C2)cc1.Cl.Cl [Form B6.] | Form 1^+ | X (X = suspension) |  | 
13 | CCNCCc1ccc(CN(CC)c2cc(OC)ccc2[C@@H]2CCc3cc(O)ccc3C2)cc1.Cl.Cl [Form C8.] |  |  |  | Observation After stirring at 25° C. for 72 hours [2]: Crystals; XRPD (form) after stirring [2]: Form 2
14 | CCNCCc1ccc(CN(CC)c2cc(OC)ccc2[C@@H]2CCc3cc(O)ccc3C2)cc1.Cl.Cl [Form C10.] |  |  |  | Solubility observation at 20 vol. [2]: X (X = suspension); Solubility observation at 30 vol [2]: X (X = suspension); XRPD (form) after stirring [2]: Form 3
15 | CCNCCc1ccc(CN(CC)c2cc(OC)ccc2[C@@H]2CCc3cc(O)ccc3C2)cc1.Cl.Cl [Form C5.] |  |  |  | Observation After stirring at 25° C. for 72 hours [2]: S
16 | CCNCCc1ccc(CN(CC)c2cc(OC)ccc2[C@@H]2CCc3cc(O)ccc3C2)cc1.Cl.Cl [Form B13.] | Poor | X (X = suspension) | Some | XRPD post 25° C. (form) [1]: Amorphous
17 | CCNCCc1ccc(CN(CC)c2cc(OC)ccc2[C@@H]2CCc3cc(O)ccc3C2)cc1.Cl.Cl [Form B21.] |  |  | Needle | XRPD post 25° C. (form) [1]: Form 1

Row | SMILES | XRPD post 50° C./RT (form) [1] | Solubility observation at 10 vol. [1] | Observation After maturation at 50° C. ([1]; maturation at 50° C./RT) | further results
18 | CCNCCc1ccc(CN(CC)c2cc(OC)ccc2[C@@H]2CCc3cc(O)ccc3C2)cc1.Cl.Cl [Form B4.] | Form 2/3 | X (X = suspension) |  | 
19 | CCNCCc1ccc(CN(CC)c2cc(OC)ccc2[C@@H]2CCc3cc(O)ccc3C2)cc1.Cl.Cl [Form B22.] |  | S (S = solution) | Green | XRPD post 25° C. (form) [1]: Form 3; Observation After maturation at 25° C. [1]: S
20 | CCNCCc1ccc(CN(CC)c2cc(OC)ccc2[C@@H]2CCc3cc(O)ccc3C2)cc1.Cl.Cl [Form C3.] |  |  |  | XRPD (form) after stirring [2]: Form 1
21 | CCNCCc1ccc(CN(CC)c2cc(OC)ccc2[C@@H]2CCc3cc(O)ccc3C2)cc1.Cl.Cl [Form C9.] |  |  |  | Solubility observation at 20 vol. [2]: X (X = suspension); Solubility observation at 30 vol [2]: X (X = suspension); XRPD (form) after stirring [2]: Form 1*
22 | CCNCCc1ccc(CN(CC)c2cc(OC)ccc2[C@@H]2CCc3cc(O)ccc3C2)cc1.Cl.Cl [Form B3.] | Form 2/3 | X (X = suspension) |  | 
23 | CCNCCc1ccc(CN(CC)c2cc(OC)ccc2[C@@H]2CCc3cc(O)ccc3C2)cc1.Cl.Cl [Form C6.] |  |  |  | Observation After stirring at 25° C. for 72 hours [2]: Crystals; XRPD (form) after stirring [2]: Form 3*
24 | CCNCCc1ccc(CN(CC)c2cc(OC)ccc2[C@@H]2CCc3cc(O)ccc3C2)cc1.Cl.Cl [Form B11.] |  | S (S = solution) | S | Observation After maturation at 25° C. [1]: S
25 | CCNCCc1ccc(CN(CC)c2cc(OC)ccc2[C@@H]2CCc3cc(O)ccc3C2)cc1.Cl.Cl [Form B7.] | Form 1^+ | X (X = suspension) |  | 
26 | CCNCCc1ccc(CN(CC)c2cc(OC)ccc2[C@@H]2CCc3cc(O)ccc3C2)cc1.Cl.Cl [Form B2.] | Form 2/3 |  |  | 
27 | CCNCCc1ccc(CN(CC)c2cc(OC)ccc2[C@@H]2CCc3cc(O)ccc3C2)cc1.Cl.Cl [Form C2.] |  |  |  | XRPD (form) after stirring [2]: Form 1
28 | CCNCCc1ccc(CN(CC)c2cc(OC)ccc2[C@@H]2CCc3cc(O)ccc3C2)cc1.Cl.Cl [Form B5.] | Form 3 | X (X = suspension) |  | 
29 | CCNCCc1ccc(CN(CC)c2cc(OC)ccc2[C@@H]2CCc3cc(O)ccc3C2)cc1.Cl.Cl [Form B16.] | Form 3* |  |  | 
30 | CCNCCc1ccc(CN(CC)c2cc(OC)ccc2[C@@H]2CCc3cc(O)ccc3C2)cc1.Cl.Cl [Form B15.] | Form 3 |  |  | Observation After maturation at 50° C. [1]: Fine
31 | CCNCCc1ccc(CN(CC)c2cc(OC)ccc2[C@@H]2CCc3cc(O)ccc3C2)cc1.Cl.Cl [Form B23.] | Form 3 | X (X = suspension) | Fine | XRPD post 25° C. (form) [1]: Form 3
32 | CCNCCc1ccc(CN(CC)c2cc(OC)ccc2[C@@H]2CCc3cc(O)ccc3C2)cc1.Cl.Cl [Form B19.] |  | X (X = suspension) | Green | XRPD post 25° C. (form) [1]: Form 3; Observation After maturation at 25° C. [1]: Crystal
33 | CCNCCc1ccc(CN(CC)c2cc(OC)ccc2[C@@H]2CCc3cc(O)ccc3C2)cc1.Cl.Cl [Form B8.] | Form 1 | X (X = suspension) | Crystalline | 
